# Source: patent publication US20210255193A1, “LYSINE REACTIVE PROBES AND USES THEREOF” (The Scripps Research Institute, priority 2017, published 2021)
# What was measured:
# Test in all cases: competitive isoTOP-ABPP
# Assay type in all cases: binding
# [1] = biological target: T1, ADK Adenosine kinase (Homo sapiens, UniProt P55263); parameters: key to isoTOP-ABPP reactivity ratio at lysine P55263_K88: R = MS1 peak area ratio, DMSO (heavy) / compound-treated (light); conditions: for isoTOP-ABPP ratio (R) at liganded lysine P55263_K88: sol, 231
# T1 construct: isoTOP-ABPP experiments performed in cell lysates (in vitro); endogenous in cells; host or cells: soluble proteome of human cancer cell lines (MDA-MB-231, Ramos, Jurkat)
# Protocol: (§1) In vitro covalent fragment treatment for isoTOP-ABPP. All compounds were made up as solutions in DMSO (100×) and were used at a final concentration of 50 μM for activated esters and 100 μM for guanidinylating agents. For each profiling sample, 0.5 ml of lysate was treated with 5 μl of the 100× compound stock solution or 5 μl of DMSO. Samples were treated with activated esters for
# (§2) STP-alkyne labeling and click chemistry. For concentration-dependent reactivity measurements by isoTOP-ABPP, 0.5 ml proteome aliquots were treated at ambient temperature with 1 mM STP-alkyne 1 (5 μl of 100 mM stock in DMSO) and 0.1 mM STP alkyne 1 (5 μl of 10 mM stock in DMSO), respectively. For competitive isoTOP-ABPP, after in vitro fragment treatment (detailed above), the samples were labeled for 1 h at ambient temperature with 0.1 mM STP-alkyne 1 (5 μl of 10 mM stock in DMSO). Samples were conjugated by copper-mediated azide-alkyne cycloaddition (CuAAC) to either the light (1 mM STP-alkyne or fragment treated) or heavy (0.1 mM STP-alkyne or DMSO treated) TEV tags (10 μl of 5 mM stocks in DMSO, final concentration=100 μM) using tris(2-carboxyethyl)phosphine hydrochloride
# (§3) R value calculation and processing. The ratios of light and heavy MS1 peaks for each unique peptide were quantified with a CIMAGE software using default parameters (3 MS1 acquisitions per peak and signal to noise threshold set to 2.5). For reactivity measurements by isoTOP-ABPP, the R value was calculated from the ratio of MS1 peak areas, comparing the 1 mM STP alkyne sample (light TEV tag) with the 0.1 mM STP alkyne sample (heavy TEV tag). For competitive isoTOP-ABPP, the R value was calculated from the ratio of MS1 peak areas, comparing the DMSO treated sample (heavy TEV tag) with the compound treated sample (light TEV tag). […] Ratios for unique peptide entries are calculated for each experiment; overlapping peptides with the same modified lysine (for example, different charge states, MudPIT chromatographic steps or tryptic termini) are grouped together and the median ratio is reported as the final ratio (R). The peptide ratios reported by CIMAGE were further filtered to ensure the removal or correction of low-quality ratios in each individual data set. The quality filters applied were the following: removal of half tryptic peptides; for ratios with high standard deviations from the median (90% of the median or above) the lowest ratio was taken instead of the median; removal of peptides with R=20 and only a single MS2 event triggered during the elution of the parent ion; manual annotation of all the peptides with ratios of 20, removing any peptides with low quality elution profiles that remained after the previous curation steps (only done for competitive isoTOP-ABPP).
# (§4) Cross-data processing for fragment screening. For compound treated samples, biological replicates of the same condition were averaged, if the standard deviation was below 60% of the mean; otherwise, for lysines with at least one R value <4 for a particular compound, the lowest value of the ratio set was taken. For lysines, where all R values for a particular compound were ≥4, the average was reported. For peptides containing several possible modified lysines, the lysine with the highest number of quantification events was used for analysis and the remaining, redundant peptides were reported as alternative modification sites. Peptides included in the aggregate dataset (those used for further bioinformatics and statistical analyses) were required to have been quantified in 2 experiments for competitive isoTOP-ABPP. Lysines were categorized as liganded, if they had at least one ratio R≥4 (hit fragments). For liganded lysines with R=20 for all liganding events, lysines were required to have been quantified with R=20 in two separate experiments and were further required to have been quantified with R<20 in one additional experiment.
# [2] = biological target: T2, ECH1 Delta(3,5)-Delta(2,4)-dienoyl-CoA isomerase, mitochondrial (Homo sapiens, UniProt Q13011); parameters: key to isoTOP-ABPP reactivity ratio at lysine Q13011_K112: R = MS1 peak area ratio, DMSO (heavy) / compound-treated (light); capped at 20; conditions: for isoTOP-ABPP ratio (R) at liganded lysine Q13011_K112: sol, 231
# T2 construct: isoTOP-ABPP experiments performed in cell lysates (in vitro); endogenous in cells; host or cells: soluble proteome of human cancer cell lines (MDA-MB-231, Ramos, Jurkat)
# T2 sequence (Q13011 34-328): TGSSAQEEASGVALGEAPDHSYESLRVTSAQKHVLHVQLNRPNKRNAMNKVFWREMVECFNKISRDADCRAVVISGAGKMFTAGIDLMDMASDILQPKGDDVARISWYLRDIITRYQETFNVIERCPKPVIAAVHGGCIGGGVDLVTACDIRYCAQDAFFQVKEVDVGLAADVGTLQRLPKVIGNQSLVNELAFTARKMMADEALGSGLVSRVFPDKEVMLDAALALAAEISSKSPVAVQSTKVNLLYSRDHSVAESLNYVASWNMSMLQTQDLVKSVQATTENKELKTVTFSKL
# Protocol: as §1, §2, §3, §4
# [3] = biological target: T3, TRMT10C Mitochondrial ribonuclease P protein 1 (Homo sapiens, UniProt Q7L0Y3); conditions: for isoTOP-ABPP ratio (R) at liganded lysine Q7L0Y3_K325: sol, 231
# T3 construct: isoTOP-ABPP experiments performed in cell lysates (in vitro); endogenous in cells; host or cells: soluble proteome of human cancer cell lines (MDA-MB-231; Ramos and Jurkat also prepared)
# T3 sequence (Q7L0Y3 40-403): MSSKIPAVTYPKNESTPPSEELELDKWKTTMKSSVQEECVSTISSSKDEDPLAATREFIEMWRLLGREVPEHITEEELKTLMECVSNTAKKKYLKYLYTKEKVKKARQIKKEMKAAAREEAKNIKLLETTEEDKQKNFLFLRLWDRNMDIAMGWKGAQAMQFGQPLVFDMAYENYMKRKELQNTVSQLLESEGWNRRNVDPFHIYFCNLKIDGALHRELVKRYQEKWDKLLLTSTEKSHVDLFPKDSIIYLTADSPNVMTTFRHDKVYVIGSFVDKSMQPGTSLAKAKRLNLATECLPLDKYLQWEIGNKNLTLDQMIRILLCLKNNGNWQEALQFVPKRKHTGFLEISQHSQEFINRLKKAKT
# How it was run: (§5)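 Lysine engagement is reported as R, the MS1 peak-area ratio of heavy-tagged DMSO to light-tagged compound samples. Final fragment concentrations were 50 μM for activated esters and 100 μM for guanidinylating agents; STP-alkyne probe 0.1 mM, 1 h.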
# [4] = biological target: T4, RINT1 RAD50-interacting protein 1 (Homo sapiens, UniProt Q6NUQ1); conditions: for isoTOP-ABPP ratio (R) at liganded lysine Q6NUQ1_K771: sol, 231
# T4 construct: isoTOP-ABPP experiments performed in cell lysates (in vitro); endogenous in cells; host or cells: soluble proteome of human cancer cell lines (MDA-MB-231; Ramos and Jurkat also prepared)
# How it was run: as §5
# [5] = biological target: T5, ISOC2 Isochorismatase domain-containing protein 2, mitochondrial (Homo sapiens, UniProt Q96AB3); parameters: key to isoTOP-ABPP reactivity ratio at lysine Q96AB3_K178: R = MS1 peak area ratio, DMSO (heavy) / compound-treated (light); capped at 20; conditions: for isoTOP-ABPP ratio (R) at liganded lysine Q96AB3_K178: sol, 231
# T5 construct: isoTOP-ABPP experiments performed in cell lysates (in vitro); endogenous in cells; host or cells: soluble proteome of human cancer cell lines (MDA-MB-231; Ramos and Jurkat also prepared)
# T5 sequence (Q96AB3 1-205): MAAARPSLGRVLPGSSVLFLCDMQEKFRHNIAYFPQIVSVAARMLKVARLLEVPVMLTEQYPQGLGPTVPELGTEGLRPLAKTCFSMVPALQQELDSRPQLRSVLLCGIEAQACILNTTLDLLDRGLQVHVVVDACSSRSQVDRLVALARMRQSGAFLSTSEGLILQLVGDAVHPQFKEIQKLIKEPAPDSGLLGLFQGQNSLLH
# Protocol: as §1, §2, §3, §4
# T1 sequence (P55263 whole entry): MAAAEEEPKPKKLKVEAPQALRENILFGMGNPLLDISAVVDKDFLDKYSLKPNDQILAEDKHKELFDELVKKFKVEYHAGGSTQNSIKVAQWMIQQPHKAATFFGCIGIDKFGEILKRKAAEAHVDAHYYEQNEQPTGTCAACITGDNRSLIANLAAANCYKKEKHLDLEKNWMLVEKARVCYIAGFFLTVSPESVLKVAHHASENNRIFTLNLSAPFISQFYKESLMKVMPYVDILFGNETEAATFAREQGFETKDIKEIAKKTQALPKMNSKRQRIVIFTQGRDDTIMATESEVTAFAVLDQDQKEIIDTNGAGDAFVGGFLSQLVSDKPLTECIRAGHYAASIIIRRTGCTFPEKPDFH
# T4 sequence (Q6NUQ1 whole entry): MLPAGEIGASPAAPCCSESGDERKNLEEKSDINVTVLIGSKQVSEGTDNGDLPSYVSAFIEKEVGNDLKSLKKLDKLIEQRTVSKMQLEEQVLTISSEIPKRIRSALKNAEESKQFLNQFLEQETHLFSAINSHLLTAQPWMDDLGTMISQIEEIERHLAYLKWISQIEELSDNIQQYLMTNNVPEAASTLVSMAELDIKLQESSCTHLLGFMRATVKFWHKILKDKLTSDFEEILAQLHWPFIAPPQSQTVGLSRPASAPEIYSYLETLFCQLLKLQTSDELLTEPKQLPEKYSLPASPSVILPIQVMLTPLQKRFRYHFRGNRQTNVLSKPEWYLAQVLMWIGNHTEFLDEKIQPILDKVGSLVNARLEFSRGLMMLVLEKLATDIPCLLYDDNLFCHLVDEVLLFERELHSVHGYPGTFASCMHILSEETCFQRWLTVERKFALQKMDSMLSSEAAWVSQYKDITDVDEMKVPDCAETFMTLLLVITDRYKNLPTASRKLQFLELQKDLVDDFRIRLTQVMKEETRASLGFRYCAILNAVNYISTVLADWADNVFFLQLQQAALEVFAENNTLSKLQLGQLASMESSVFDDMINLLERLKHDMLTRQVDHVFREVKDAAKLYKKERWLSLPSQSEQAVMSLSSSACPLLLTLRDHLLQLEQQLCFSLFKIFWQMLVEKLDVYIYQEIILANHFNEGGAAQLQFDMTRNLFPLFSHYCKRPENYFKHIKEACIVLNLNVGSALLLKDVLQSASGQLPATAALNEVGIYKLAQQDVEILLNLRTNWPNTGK
Compound,"isoTOP-ABPP ratio, lysine P55263_K88 ([1]; 50 uM_231_sol_in vitro)","isoTOP-ABPP ratio, lysine Q13011_K112 ([2]; 50 uM_231_sol_in vitro)","isoTOP-ABPP ratio, lysine Q7L0Y3_K325 ([3]; 50 uM_231_sol_in vitro)","isoTOP-ABPP ratio, lysine Q6NUQ1_K771 ([4]; 50 uM_231_sol_in vitro)","isoTOP-ABPP ratio, lysine Q96AB3_K178 ([5]; 50 uM_231_sol_in vitro)","isoTOP-ABPP reactivity ratio at lysine P55263_K88 ([1]; 50 uM, 231 sol, in vitro)","isoTOP-ABPP reactivity ratio at lysine Q13011_K112 ([2]; 50 uM, 231 sol, in vitro)","isoTOP-ABPP reactivity ratio at lysine Q7L0Y3_K325 ([3]; 50 uM, 231 sol, in vitro)","isoTOP-ABPP reactivity ratio at lysine Q6NUQ1_K771 ([4]; 50 uM, 231 sol, in vitro)","isoTOP-ABPP reactivity ratio at lysine Q96AB3_K178 ([5]; 50 uM, 231 sol, in vitro)",other results
"O=C(ON1C(=O)CCC1=O)c1cc(C(F)(F)F)cc(C(F)(F)F)c1 [fragment 46, 3,5-Bis(trifluoromethyl)benzoic acid NHS ester]",0.8,0.8,1.0,20.0,1.5,,,,,,
"NC(=O)c1cc(C(F)(F)F)cc(C(F)(F)F)c1 [fragment 51, reference compound]",0.8,1.0,0.9,0.9,0.9,,,,,,
"COc1cc(CCC(=O)Oc2ccc([N+](=O)[O-])cc2[N+](=O)[O-])cc(OC)c1OC [fragment 33, 2,4-Dinitrophenyl 3-(3,4,5-trimethoxyphenyl)propanoate]",,,,,,0.9,0.9,0.9,1.0,9.1,
"O=C(Oc1ccc([N+](=O)[O-])cc1[N+](=O)[O-])C(c1ccccc1)c1ccccc1 [fragment 30, 2,4-Dinitrophenyl 2,2-diphenylacetate]",,,,,,0.8,0.9,1.1,1.7,1.0,
"O=C(Oc1ccc([N+](=O)[O-])cc1[N+](=O)[O-])c1cc(C(F)(F)F)cc(C(F)(F)F)c1 [fragment 31, 2,4-Dinitrophenyl 3,5-bis(trifluoromethyl)benzoate]",,,,,,0.7,1.2,1.1,20.0,2.1,
"O=C(CCc1cn(-c2ccccc2)nc1-c1ccccc1)Oc1ccc([N+](=O)[O-])cc1[N+](=O)[O-] [fragment 29, 2,4-Dinitrophenyl 3-(1,3-diphenyl-1H-pyrazol-4-yl)propanoate]",,,,,,1.0,1.0,0.7,1.2,1.7,
"CC(=O)Oc1ccc([N+](=O)[O-])cc1[N+](=O)[O-] [fragment 43, 2,4-Dinitrophenyl acetate]",,,,,,,,,,,"isoTOP-ABPP ratio (R) at liganded lysine P55263_K88 ([1]; 50 uM, in vitro): 0.9; isoTOP-ABPP ratio (R) at liganded lysine Q13011_K112 ([2]; 50 uM, in vitro): 1.2; isoTOP-ABPP ratio (R) at liganded lysine Q7L0Y3_K325 ([3]; 50 uM, in vitro): 1.0; isoTOP-ABPP ratio (R) at liganded lysine Q6NUQ1_K771 ([4]; 50 uM, in vitro): 1.0; isoTOP-ABPP ratio (R) at liganded lysine Q96AB3_K178 ([5]; 50 uM, in vitro): 1.1"
"CC(C)(C)OC(=O)N=C(NC(=O)OC(C)(C)C)n1cccn1 [fragment 50, reference compound]",,,,,,,,,,,"isoTOP-ABPP ratio, lysine P55263_K88 ([1]; 100 uM_231_sol_in vitro): 1.0; isoTOP-ABPP ratio, lysine Q13011_K112 ([2]; 100 uM_231_sol_in vitro): 1.3; isoTOP-ABPP ratio, lysine Q7L0Y3_K325 ([3]; 100 uM_231_sol_in vitro): 6.2; isoTOP-ABPP ratio, lysine Q6NUQ1_K771 ([4]; 100 uM_231_sol_in vitro): 1.1; isoTOP-ABPP ratio, lysine Q96AB3_K178 ([5]; 100 uM_231_sol_in vitro): 1.1"
"N#Cc1ccc(C(=O)Oc2ccc([N+](=O)[O-])cc2[N+](=O)[O-])cc1 [fragment 44, 2,4-Dinitrophenyl 4-cyanobenzoate]",0.5,0.9,1.3,1.7,1.3,,,,,,
"O=C(Oc1ccc([N+](=O)[O-])cc1[N+](=O)[O-])c1ccc(-c2ccccc2)cc1 [fragment 37, 2,4-Dinitrophenyl [1,1′-biphenyl]-4-carboxylate]",,,,,,,,,,,"isoTOP-ABPP ratio (R) at liganded lysine P55263_K88 ([1]; 50 uM, in vitro): 0.8; isoTOP-ABPP ratio (R) at liganded lysine Q13011_K112 ([2]; 50 uM, in vitro): 0.9; isoTOP-ABPP ratio (R) at liganded lysine Q7L0Y3_K325 ([3]; 50 uM, in vitro): 1.0; isoTOP-ABPP ratio (R) at liganded lysine Q6NUQ1_K771 ([4]; 50 uM, in vitro): 1.3; isoTOP-ABPP ratio (R) at liganded lysine Q96AB3_K178 ([5]; 50 uM, in vitro): 0.9"
"O=C(CCc1ccc2c(c1)OCO2)Oc1ccc([N+](=O)[O-])cc1[N+](=O)[O-] [fragment 45, 2,4-Dinitrophenyl 3-(benzo[d][1,3]dioxol-5-yl)propanoate]",1.3,1.0,1.0,1.0,1.8,,,,,,
"COC(=O)NC(=NC(=O)OCC1c2ccccc2-c2ccccc21)n1cccn1 [fragment 49, N-Methoxycarbonyl-N′-9-fluorenylmethoxycarbonyl-pyrazole-1-carboxamidine]",,,,,,,,,,,"isoTOP-ABPP ratio, lysine P55263_K88 ([1]; 100 uM_231_sol_in vitro): 1.2; isoTOP-ABPP ratio, lysine Q13011_K112 ([2]; 100 uM_231_sol_in vitro): 1.1; isoTOP-ABPP ratio, lysine Q7L0Y3_K325 ([3]; 100 uM_231_sol_in vitro): 1.2; isoTOP-ABPP ratio, lysine Q6NUQ1_K771 ([4]; 100 uM_231_sol_in vitro): 1.1; isoTOP-ABPP ratio, lysine Q96AB3_K178 ([5]; 100 uM_231_sol_in vitro): 1.1"
"O=C(Oc1c(F)c(F)c(F)c(F)c1F)C(c1ccccc1)c1ccccc1 [fragment 20, Pentafluorophenyl 2,2-diphenylacetate]",,,,,,,,,,,"R value (DMSO/fragment) for probe 1 labeling ([1]; P55263_K88, 50 uM, 231 sol, in vitro): 0.8; R value (DMSO/fragment) for probe 1 labeling ([2]; Q13011_K112, 50 uM, 231 sol, in vitro): 1.4; R value (DMSO/fragment) for probe 1 labeling ([3]; Q7L0Y3_K325, 50 uM, 231 sol, in vitro): 1.1; R value (DMSO/fragment) for probe 1 labeling ([4]; Q6NUQ1_K771, 50 uM, 231 sol, in vitro): 1.0; R value (DMSO/fragment) for probe 1 labeling ([5]; Q96AB3_K178, 50 uM, 231 sol, in vitro): 0.9"
